Our source for the KI (inactivation) values is paper PMC2924751 (Chemical research in toxicology, 2010).

One data set addresses P450 3A4 (Homo sapiens, UniProt P08684). Put plainly: in vitro.
A further data set deals with P450 3A5 (Homo sapiens, UniProt P20815). Put plainly: in vitro.
Chain of P450 3A5 (P20815 whole entry): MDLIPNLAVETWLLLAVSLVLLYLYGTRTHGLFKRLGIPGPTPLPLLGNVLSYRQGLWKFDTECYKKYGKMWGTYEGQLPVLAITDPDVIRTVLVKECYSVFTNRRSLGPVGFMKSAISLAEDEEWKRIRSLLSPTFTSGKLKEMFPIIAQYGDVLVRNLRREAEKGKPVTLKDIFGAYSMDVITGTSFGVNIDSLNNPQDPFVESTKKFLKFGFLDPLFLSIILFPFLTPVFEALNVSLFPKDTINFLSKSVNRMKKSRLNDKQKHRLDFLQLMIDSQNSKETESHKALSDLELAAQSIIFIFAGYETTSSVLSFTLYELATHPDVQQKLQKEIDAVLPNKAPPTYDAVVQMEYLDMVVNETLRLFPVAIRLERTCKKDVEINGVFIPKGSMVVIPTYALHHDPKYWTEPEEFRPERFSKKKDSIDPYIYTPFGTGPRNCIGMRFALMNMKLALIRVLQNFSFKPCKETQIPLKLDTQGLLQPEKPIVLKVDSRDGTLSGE
Chain of P450 3A5 (P16435 2-677 partner): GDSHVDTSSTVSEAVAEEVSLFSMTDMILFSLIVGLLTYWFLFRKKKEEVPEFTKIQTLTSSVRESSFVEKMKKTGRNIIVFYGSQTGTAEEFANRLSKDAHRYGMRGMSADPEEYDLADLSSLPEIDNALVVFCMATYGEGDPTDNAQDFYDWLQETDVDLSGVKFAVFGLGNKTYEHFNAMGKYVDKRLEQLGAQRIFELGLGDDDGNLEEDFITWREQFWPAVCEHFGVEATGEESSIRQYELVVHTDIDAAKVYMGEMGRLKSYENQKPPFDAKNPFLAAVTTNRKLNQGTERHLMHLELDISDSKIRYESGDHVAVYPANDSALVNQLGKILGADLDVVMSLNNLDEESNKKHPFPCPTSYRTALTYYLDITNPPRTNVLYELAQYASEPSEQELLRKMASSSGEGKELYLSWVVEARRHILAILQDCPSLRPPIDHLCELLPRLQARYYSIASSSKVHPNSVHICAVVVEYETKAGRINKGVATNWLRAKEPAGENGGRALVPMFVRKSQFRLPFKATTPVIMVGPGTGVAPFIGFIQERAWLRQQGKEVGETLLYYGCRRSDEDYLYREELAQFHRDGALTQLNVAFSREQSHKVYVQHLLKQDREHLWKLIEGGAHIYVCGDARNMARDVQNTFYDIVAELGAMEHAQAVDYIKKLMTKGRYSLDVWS
Chain of P450 3A5 (P00167 2-134 partner): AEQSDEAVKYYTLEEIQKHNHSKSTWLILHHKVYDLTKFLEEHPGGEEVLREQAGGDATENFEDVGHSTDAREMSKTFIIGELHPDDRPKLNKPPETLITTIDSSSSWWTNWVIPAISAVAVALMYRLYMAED

Chain of P450 3A4 (P08684 2-503): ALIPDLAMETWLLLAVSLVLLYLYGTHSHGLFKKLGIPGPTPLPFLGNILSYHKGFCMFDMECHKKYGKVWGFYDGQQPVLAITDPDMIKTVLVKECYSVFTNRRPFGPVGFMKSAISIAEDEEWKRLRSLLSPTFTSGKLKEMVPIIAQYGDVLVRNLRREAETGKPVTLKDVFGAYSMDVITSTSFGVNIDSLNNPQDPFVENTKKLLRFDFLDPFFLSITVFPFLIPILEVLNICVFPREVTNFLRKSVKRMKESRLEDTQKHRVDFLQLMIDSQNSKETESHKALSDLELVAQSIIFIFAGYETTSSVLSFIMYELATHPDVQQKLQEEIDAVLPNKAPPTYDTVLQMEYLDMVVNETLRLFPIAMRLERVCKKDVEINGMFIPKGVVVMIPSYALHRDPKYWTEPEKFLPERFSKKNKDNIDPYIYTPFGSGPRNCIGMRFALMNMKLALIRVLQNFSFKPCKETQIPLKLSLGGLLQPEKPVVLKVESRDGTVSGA
Chain of P450 3A4 (P16435 2-677 partner): as the sequence (P16435 2-677 partner) above
Chain of P450 3A4 (P00167 2-134 partner): as the sequence (P00167 2-134 partner) above

`CCC(=O)O[C@]1(C(=O)SCF)[C@H](C)C[C@H]2[C@@H]3C[C@H](F)C4=CC(=O)C=C[C@]4(C)[C@@]3(F)[C@@H](O)C[C@@]21C` [FLT, fluticasone propionate]: the KI (inactivation) was found to be 3.5 µM on P450 3A4 and 16 µM on P450 3A5.
